{"source": "patent US8017350B2", "about": "“Glimepiride- and insulin-induced glycosylphosphatidylinositol-specific phospholipase C regulation” (Sanofi-Aventis Deutschland GmbH, priority 2004, dated 2011)", "key": {"[1]": {"target": "T1, bovine AChE (Bos taurus, UniProt P23795)", "T1 construct": "solubilized and partially purified bovine erythrocyte AChE; from tissue; host or cells: bovine erythrocytes", "T1 sequence (P23795 31-614 isoform P23795-2 limits assumed)": "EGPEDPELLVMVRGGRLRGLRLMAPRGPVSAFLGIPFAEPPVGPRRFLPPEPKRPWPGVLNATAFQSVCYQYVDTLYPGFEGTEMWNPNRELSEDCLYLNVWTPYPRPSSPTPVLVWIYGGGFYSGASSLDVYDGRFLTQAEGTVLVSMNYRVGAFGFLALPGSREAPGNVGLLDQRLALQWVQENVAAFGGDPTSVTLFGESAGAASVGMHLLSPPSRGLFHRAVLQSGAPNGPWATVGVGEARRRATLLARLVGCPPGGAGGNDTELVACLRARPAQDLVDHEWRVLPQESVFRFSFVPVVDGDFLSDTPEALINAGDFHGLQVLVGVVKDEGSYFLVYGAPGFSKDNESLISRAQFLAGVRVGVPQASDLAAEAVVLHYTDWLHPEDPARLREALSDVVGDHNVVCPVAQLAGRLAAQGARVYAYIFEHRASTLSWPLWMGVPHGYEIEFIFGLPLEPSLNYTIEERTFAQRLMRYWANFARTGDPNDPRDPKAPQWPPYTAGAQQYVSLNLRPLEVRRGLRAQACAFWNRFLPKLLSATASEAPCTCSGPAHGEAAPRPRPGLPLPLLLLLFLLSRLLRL", "experiment": "AChE activity", "type": "biochemical", "conditions": "50 μM", "procedure": "Electroporation was performed as described in “Müller, G. et al., (2000) Mol. Cell. Biol. 20: 4708-4723”. Lipolysis was determined as release of glycerol or fluorescent NBD-FA from prelabeled and isoproterenol-stimulated adipocytes as described in “Müller, G. et al., (2003) Biochimie 85: 1245-1256”. Gce1 was detected by photolabeling of solubilized plasma membranes or hc/lcDIGs (10-50 μg protein) with 8-N3—[^32P]cAMP and subsequent phosphorimaging as described in “Müller, G. et al., (1994) Biochemistry 33: 12149-12159”. 5′-Nuc, aP and AChE activities were measured according to “Eliakim, R. et al., (1990) Biochim. Biophys. Acta 1355: 293-302”. Protein was determined using the BCA protein determination kit from Pierce (Rockford, Ill.) and BSA as calibration standard. SDS-PAGE was performed using precast gels (Novex, San Diego, Calif.; 10% Bis-Tris resolving gel, morpholinopropanesulfonic acid-SDS running buffer). Lumiimages were evaluated on a LumiImager using LumiImager software (Roche Diagnostics). Phosphor- and fluorescence images were processed and quantified using the Storm 860 PhosphorImager system (Molecular Dynamics, Gelsenkirchen, Germany). Figures were constructed using the ADOBE PHOTOSHOP software (Adobe Systems, Mountain View, Calif.).\nFIG. 3: Selectivity of GPI-2350. […]"}, "[2]": {"target": "T2, GPI-PLC (T. brucei) (Trypanosoma brucei brucei, UniProt P09194)", "T2 construct": "purchased Oxford Glycosystems (Oxford, UK)", "T2 sequence (P09194 whole entry)": "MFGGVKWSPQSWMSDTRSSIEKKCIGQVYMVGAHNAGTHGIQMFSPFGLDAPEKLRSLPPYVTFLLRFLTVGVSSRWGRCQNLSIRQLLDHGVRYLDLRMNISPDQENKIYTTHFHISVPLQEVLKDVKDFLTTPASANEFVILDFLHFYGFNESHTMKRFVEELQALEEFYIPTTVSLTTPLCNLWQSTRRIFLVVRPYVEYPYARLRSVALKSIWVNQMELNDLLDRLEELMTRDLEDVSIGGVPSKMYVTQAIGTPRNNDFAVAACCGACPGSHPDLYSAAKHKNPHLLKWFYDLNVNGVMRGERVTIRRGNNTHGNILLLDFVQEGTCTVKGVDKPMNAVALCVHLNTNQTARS", "experiment": "GPI-PLC (T. brucei) assay, human placental aP substrate, TX-114 partitioning", "type": "biochemical", "procedure": "GPI-PLD (rat serum) was assayed according to “Hari et al. (1997) Biochim. Biophys. Acta 1355: 293-302” by incubation with 10 μl of human placental aP solution (100 U/ml in 10 mM Hepes/NaOH, pH 7.0, 150 mM NaCl) in 100 μl of 200 mM Tris/maleate (pH 7.0) and 1% Nonidet P-40 for 10 min at 37° C. and subsequent termination of the reaction by addition of 0.4 ml of ice-cold stop buffer (10 mM Hepes/NaOH, pH 7.0, 150 mM NaCl, 0.1 mM MgCl2 and 0.01 mM zinc acetate). GPI-PLC (T. brucei) was assayed as described in “Mensa-Wilmot et al. (1995) Methods Enzymol. 250: 641-655” by incubation with 5 μl of human placental aP solution (see above) in 50 μl of 50 mM Tris/HCl (pH 8.0), 0.25% Nonidet P-40 and 5 mM EDTA for 30 min at 37° C. and subsequent termination of the reaction by addition of 0.45 ml of stop buffer. PI-PLC (B. cereus) and adipocyte GPI-PLC (5-25 μg plasma membranes or hc/lcDIGs) were assayed by incubation with 10 μl of bovine erythrocyte acetylcholinesterase (AChE) solution (12 U/ml in 10 mM Tris/HCl, pH 7.4, 144 mM NaCl, 0.1% TX-100) in 100 μl of 20 mM Hepes/KOH (pH 7.8), 144 mM NaCl, 0.1% TX-100, 0.2 mM MgCl2 for 1 h at 25° C. and subsequent termination by adding 5 μl of glacial acetic acid and then 0.4 ml of 10 mM Tris/HCl (pH 7.4), 144 mM NaCl. Each reaction mixture was subjected to TX-114 partitioning (see below).\nPelleted hc/lcDIGs (10-50 μg protein) or (G)PI-PLC reaction mixtures (0.5 ml) were separated into amphiphilic and hydrophilic proteins using partitioning between TX-114-enriched and depleted phases according to “Bordier, C., (1981) J. Biol, Chem. […]” by suspending in 1 ml of ice-cold TX-114 (1%), 25 mM Tris/HCl (pH 7.4), 144 mM NaCl or mixing with 0.5 ml of ice-cold TX-114 (2%), respectively. After incubation for 1 h on ice, the mixture was layered onto a cushion of 0.4 ml of 0.25 M sucrose and 25 mM Tris/HCl (pH 7.4) on ice. Phase separation was induced by warming up to 37° C. and subsequent centrifugation (10,000×g, 1 min). After re-extraction of the lower TX-114-enriched phase, aliquots of the pooled upper TX-114-depleted phase were measured for 5′-Nuc, aP and AChE activity or precipitated (15 polyethylene glycol 4000) for SDS-PAGE analysis.\nTable 1: GPI-PLC of hcDIGs from rat adipocytes, GPI-PLC from T. brucei and PI-PLC from B. cereus were incubated with solubilized and partially purified bovine erythrocyte AChE or human placental aP in the absence or presence of increasing concentrations (0.05 μM-1 mM) of the inhibitors indicated under appropriate conditions (see Materials and Methods). Cleavage rate was calculated from the amount of hydrophilic AChE and aP activity recovered with the TX-114-depleted phase upon TX-114 partitioning. Means+SD from at least 3 independent incubations with partitioning/enzyme assays in quadruplicate are given. n.a., not applicable.\nPurified (G)PI-PLC/D from B. cereus, rat serum and T. brucei as well as total plasma membranes (PM) and hc/lcDIGs prepared from isolated rat adipocytes were incubated (10 min, 30° C.) with increasing concentrations of GPI-2350 and then assayed for amphiphilic-to-hydrophilic conversion of AChE and aP by TX-114 partitioning (see Materials and Methods). The lipolytic activity was calculated as % of the control reaction in the absence of GPI-2350 (set at 100%). Means+SD of at least 4 independent incubations with AChE and aP activity measurements in triplicate each are given."}}}
{"smiles": "CCCCCCCCCCCCP1(=O)O[C@@H]2[C@H](O)[C@@H](O)[C@H](O)[C@@H](O)[C@@H]2O1", "note": "(some centres unmarked) [GPI-2350, myo-inositol-1,2-cyclo-dodecylphosphonic acid]", "values": [{"measurement": "effect on AChE", "setting": "[1]", "result": "not significantly affected"}, {"measurement": "IC50", "setting": "[2]; IC50, Table 1, inhibitor 0.05 μM-1 mM", "result": "2 to 5", "unit": "µM"}, {"measurement": "IC50", "setting": "[2]; apparent IC50, FIG. 2", "result": 2, "unit": "µM"}, {"measurement": "inhibition at 1000 µM", "setting": "[2]; read-out: inhibition % at 1 mM", "result": 85, "unit": "%"}, {"measurement": "reversal of half-maximal inhibition", "setting": "[2]; upon 10-fold dilution with excess of fresh GPI-protein substrate", "result": "completely reversed"}]}
